This is an account of results in a melting point compilation (Tetko et al.; mined from patent text by program, amines drawn as free bases though some values may be those of a salt).

`O=C(O)c1cc(OCc2ccccn2)c(C(=O)c2ccccc2)c([N+](=O)[O-])c1` came in with a melting point of 224 to 225 °C. Under `CC(=O)c1ccccc1-c1ccc(C(=O)O)cc1` stands 199 to 201 °C; under `CC(O)c1nc2c(OCc3ccccc3)cccc2n1C` (centres undefined), 148 to 150 °C; under `COc1ccc(C(=O)Nc2ccncc2)c2c1oc1ccc(C(F)(F)F)cc12`, 259 °C. Under `O=C(CC1CCCCC1)Nc1c(Cl)ccc2nc(N3CCC(c4noc(=O)[nH]4)CC3)ccc12` stands 233 to 235 °C; under `O=C1CCC(c2ccccc2O)=NN1`, 211 to 212 °C.

The molecule `O=C1NC(=S)N/C1=C\c1c[nH]c2ncc(-c3ccccc3)cc12` had a melting point of 265 to 270 °C. Take `O=C(c1ccc2nonc2c1)N1CC2C=CC1C2` (centres undefined): the melting point was 106 to 108 °C. With `COc1cc2cc(C(=O)N3CC(CCl)c4c3cc(N3C(=O)c5ccccc5C3=O)c3ncccc43)[nH]c2c(OC)c1OC` (centres undefined), the melting point was in the range of 189 to 191 °C.

`CC(C)c1cc(C=C2Sc3ccccc3N(Cc3nnn[nH]3)C2=O)cc(C(C)C)c1O` registered a melting point of 189 to 190 °C. `COc1cccc(OC)c1C(=O)Nc1cccc2c1CCN(C)C2` yielded a melting point of 191 to 192 °C. Under `CC(=O)c1cccc(NC(=O)NC2N=C(C(C)C)c3ccccc3N(CC(=O)N3CC4CCC(CC4)C3)C2=O)c1` (centres undefined) stands 138 to 140 °C. The molecule `CSC(=S)NCc1cn(-c2ccc(N3CCOCC3)c(F)c2)nn1` yielded a melting point of 148 °C. In turn, `O=C(/C=C\c1ccccc1)Nc1ccccc1` displayed a melting point of 101 to 102 °C. Under `N#CC1=C(C2CC(=O)N(Cc3ccccc3)C2)Nc2n[nH]cc2C1c1ccccc1Cl` (centres undefined) stands more than 230 °C; under `CCOC(=O)c1cn(Cc2ccccc2)nc1OCc1ccc(OC)c(OCc2nc(-c3ccco3)oc2C)c1`, 147 to 148 °C; under `CC(C)(C)OC(=O)NC(CSCc1ccc(-c2ccc(-c3ccc4c(c3)OCO4)cc2)cc1)C(=O)O` (centres undefined), 178 to 180 °C. Under `CCOC(=O)C(NC(=O)NN1CC(=O)NC1=O)c1ccccc1` (centres undefined) stands 148 to 151 °C; under `CCOC(=O)c1ccc(NC(=O)C=C(c2ccc(OC)cc2)c2ccc(OC)cc2)cc1`, 156 to 159 °C. In turn, `O=C(O)c1cccc(N(CCc2ccccc2)c2nnc(-c3cccc(Oc4cccc(C(F)(F)F)c4)c3)s2)c1` showed a melting point of 92 to 93 °C. Under `CCOP(=O)(CN1CCC(N(C)S(=O)(=O)c2ccc(Nc3nccc(Nc4ccc(F)c(F)c4)n3)cc2)CC1)OCC` stands 138 °C; under `C[C@]1(CN2CCN(C(=O)COc3ccc(Cl)cc3)CC2)Cn2cc([N+](=O)[O-])nc2O1`, 179 to 180 °C. Under `Cc1oc2ccc(S(=O)(=O)C[N+](=O)[O-])cc2c(=O)c1C` stands 206 to 209 °C; under `Oc1ccc(-c2cc3cc(Br)ccc3o2)cc1`, 228 to 229 °C; under `C=C(C)CN1CCN(CC(=O)N2c3ccccc3C(=O)Nc3cccnc32)CC1`, 205 to 207 °C. Under `CCCCOC(=O)N=C(NC(=O)c1ccccc1)SC` stands 99 to 101 °C. In the case of `Cc1c(C2(c3cccs3)CCC(c3ccccc3)(N(C)C)CC2)[nH]c2ccccc12` (centres undefined), the melting point fell in the range of 202 to 205 °C. Under `CCOC(=O)c1cc(=O)c(Oc2ccccc2OC)co1` stands 74 to 76 °C; under `CC(Oc1cc(Cl)ccc1Br)C(=O)N(C)C` (centres undefined), 76 to 77 °C. Under `CCOC(=O)c1c(N)n(C)c2cc(Cl)ccc12` stands 155 to 157 °C. Under `c1ccc2c(c1)NC1CCCc3onc-2c31` (centres undefined) stands 152 to 154 °C; under `O=C(O)CCCNC(=O)S[C@@H]1CC(=O)N(Cc2ccc(Oc3ccc(F)cc3)nc2)C1`, 131 to 132 °C. `COc1ccc2ccc(O)c(C3NCCc4ccccc43)c2c1` (centres undefined) yielded a melting point of 126 to 130 °C. As for `CN1CCC(NC(=O)c2cccc3oc(-c4ccccc4)nc23)CC1`, the melting point was in the range of 126 to 128 °C.

Molecule `O=C(NCc1cccnc1)OCc1ccccc1` yielded a melting point of 73.6 to 77.1 °C. As for `COc1ccc(Oc2cc(Cl)ccc2[N+](=O)[O-])c(C(=O)O)c1`, the melting point fell in the range of 232 to 234 °C. Under `CCN(Cc1cc(Br)ccc1OCC1CC1)c1ccc(C(=O)O)cn1` stands 175 to 177 °C; under `CC(O)C(=O)N[C@H](C(=O)NC(Cc1ccccc1)C(O)CNCC(O)C(Cc1ccccc1)NC(=O)OC(C)(C)C)C(C)C` (some centres undefined), 210 to 214 °C. Under `CCN1CCN(c2cccc3c2CC(NC(=O)c2ccc(N4CCOCC4)cc2)CC3)CC1` (centres undefined) stands 204 to 206 °C; under `N#Cc1cn(-c2ccc([N+](=O)[O-])c(N)c2)cc1-c1ccccc1`, 193 to 194 °C. Under `O=C1NCCC1Cc1ccccc1` (centres undefined) stands 112 to 113 °C; under `CN1CCN(c2n[nH]c3ccc(Cl)cc23)CC1`, 172 to 174 °C; under `CCOC(=O)c1c[nH]c2c(OC)csc2c1=O`, 244 to 247 °C.

Molecule `CCNc1ccc(C(N)=O)cc1[N+](=O)[O-]` had a melting point of 226 °C.

In turn, `Cc1ccccc1-c1cc(C(=O)NC(=N)N)c2ccc(O)cc2n1` came in with a melting point of 202 to 208 °C.

On to `CC(C)N1C(=O)NC(c2ccc3c(c2)OCO3)c2cc3c(cc21)OCO3` (centres undefined), for which the melting point was in the range of 87 to 89 °C. Under `CCCCOCCOc1ccc(-c2ccc3c(c2)C=C(C(=O)O)CCN3c2ccccc2)cc1` stands 129 to 131 °C; under `CN(C)C(=O)c1nn(-c2cccc(F)c2)c(=O)c2c1c1ccc(Cl)cc1n2C`, 208 to 209 °C; under `CC[C@H](C)[C@H](NC(=O)O[C@@H](CC(C)C)C(=O)O)C(N)=O`, 170 to 175 °C. Under `CN1CCN=C1N1CCNCC1` stands 115 to 125 °C; under `COC(=O)CCc1cn(Cc2ccc(C(=O)O)cc2OC)c2cc(C(=O)NCC3CCCC3)ccc12`, 181 to 182 °C.

`COc1ccc(C2=NC(C)(C)CO2)c(Cc2ccccc2)c1OC` showed a melting point of 81 to 82 °C. Regarding `CC[C@@]1(C)OC(=O)C(c2ccc(F)c(F)c2)=C1c1ccc(S(C)(=O)=O)cc1`, the melting point was determined as 144 °C.

Turning to `Cc1cc2nc(C(C)C)c(CO)c(-c3ccc(F)cc3)n2n1`, the melting point came to 188 °C. Under `C#CCOCc1c(C)nc2c(OCc3ccccc3Cl)cccn12` stands 95 to 95.5 °C; under `CCc1cccc2c3c([nH]c12)[C@@]1(CC(=O)O)CC[C@H]1CC3` (relative stereo), 170 to 171 °C; under `CCC1(C(=O)OC)C(=O)Nc2cccc(Cl)c2CC1c1ccc(OC)cc1` (centres undefined), 190 to 192 °C. Under `CCOCCNC(=O)c1ccn2nc(-c3ccccc3)c(-c3ccc(=O)n(C(C)C)n3)c2c1` stands 149 to 150 °C; under `C=C[Si]12OC3CC(CC(C3)O1)O2`, 116 °C. Under `CC(=O)Nc1ccc2c(c1)S(=O)(=O)NCN2C1CC1` stands 230 to 232 °C; under `CC(C)C(=O)Nc1c(C(=O)c2occc2CO)[nH]c2cc(Cl)ccc12`, 170 to 171 °C; under `COc1cc2nc(=O)n3[nH]cnc3c2cc1OC`, 320 to 325 °C. The molecule `CC(C)Cn1c(=O)n(C)c(=O)c2cn(Cc3cccc4ccccc34)nc21` showed a melting point of 178 °C. For `N#Cc1ccc2c(c1)ncn2-c1cccc(Br)c1`, the melting point is 168 to 174 °C. Under `CCOC(=O)c1c(Cl)nc2ccc(Br)cc2c1Cl` stands 120 to 121 °C. Under `O=C1c2cc([N+](=O)[O-])ccc2CC2CCCCN12` (centres undefined) stands 137 to 142 °C; under `CN1C(=O)C(c2ccc(OC(F)F)cc2)(c2cccc(CCCC#N)c2)N=C1N` (centres undefined), 75 °C. In turn, `CCCc1nn(C)c(C(N)=O)c1C(=O)c1ccc(N)cc1` yielded a melting point of 140 °C. `COc1ccc2cc(O)c(C(C)(C)O)cc2c1`: the melting point fell in the range of 148 to 150 °C. In turn, `Cc1nc(-c2cccc([N+](=O)[O-])c2)sc1C(=O)O` yielded a melting point of 235 to 236 °C.

For `CC(=O)C1C=C(Br)C(=O)CO1` (centres undefined), the melting point lay in the range of 78 to 80 °C. Under `CCOc1nc(N2CCNCC2)nc2c1sc1nc(-c3ccc(C(O)CO)cc3)nc(C)c12` (centres undefined) stands more than 300 °C; under `CCCCCCCCCCCCCCCCSCC(CN)NC(=O)OC(C)(C)C` (centres undefined), 46 to 47 °C. Under `COC(=O)C(Oc1ccc(Cl)c(C(F)(F)F)c1)c1ccc(Cl)cc1` (centres undefined) stands 58 °C; under `COC(=O)c1[nH]c2c(C)ccc(C)c2c1C(=O)OC`, 143 to 144 °C; under `O=C(O)CCCCN1CCN(C2=Nc3ccccc3Cc3ccccc32)CC1`, 235 to 237 °C. Under `C1=C(CCc2ccccc2)CCN(Cc2nc3ccccc3[nH]2)C1` stands 177 to 179 °C; under `CCCCc1nc(C)n2[nH]c(=O)nc2c1Cc1ccc(-c2ccccc2C(=O)O)cc1`, 210 to 211 °C.

In turn, `CCC(O)c1nc2c(C(F)(F)F)cccc2c(O)c1C(=O)Nc1nccs1` (centres undefined) came in with a melting point of 180 °C. Under `COc1ccc(C)c(NC(=O)CCl)c1` stands 89 to 91 °C; under `COc1ccc(-c2nc(Sc3ccc(C(C)(C)C)cc3)n(C3CCCCO3)c2-c2ccc(OC)cc2)cc1` (centres undefined), 162 to 164 °C; under `CC(=O)c1ccc(N2Cc3ccccc3C2=O)cc1`, 235 to 237 °C. Regarding `COc1ccc(CNc2nc(C)nc(C)c2Cl)cc1O`, the melting point lay in the range of 165 to 168 °C. Under `O=c1c(-c2ccccc2)nc2ccccc2n1CC(F)F` stands 85 to 88 °C. As for `CN1C(=O)C(NC(=O)CCc2ccc(Cl)cc2Cl)CC(=O)c2ccccc21` (centres undefined), the melting point was in the range of 182 to 184 °C. Under `COc1nc2ccccc2nc1NC(=S)N1CCN(c2ccccc2SC)CC1` stands 148 to 150 °C; under `O=C1OCCC=C1c1ccccc1`, 100 to 101 °C.

`COc1ccc(C(=O)C2C(=O)c3cccc(NC(=O)Oc4ccccc4)c3C2=O)cc1` (centres undefined) yielded a melting point of 256 to 258 °C. Under `O=[N+]([O-])c1ccc2c(c1)C(c1ccccc1F)=[N+]([O-])C(CCl)N2` (centres undefined) stands 220 to 224 °C.
